Several values for one entry are separate records, joined by “and”; a condition that tells them apart may be missing. Equal entries are not always repeated. Where two headings read alike, the source gives them in different places. *1 amine or outer side, *2 acyl side, *3 side chain or, on linkers, in order; H or OH if unused. Where a SMILES comes first, the peptide text is derived from it. Side-chain parts run from the residue outwards. [ ]: non-standard residue; d: D form. The star is where a group is joined. C20 diacid = O=C(O)CCCCCCCCCCCCCCCCCCC(=O)*; γGlu = O=C(O)[C@H](CCC(=O)[*:2])N[*:1]; αMeL = CC(C)C[C@](C)(N)C(=O)O; AEEA = NCCOCCOCC(=O)O; Aib = CC(C)(N)C(=O)O
What was measured:
[1] = Pharmacokinetics in Sprague Dawley rats, single subcutaneous or intravenous dose (incl. 10, 30, 100 nmol/kg dose response); type: in vivo; settings: for Tmax: read-out: Tmax
[2] = tested on: MHC-II presented peptides on human dendritic cells; test: MAPPS assay (MHC-Associated Peptide Proteomics); type: cell-based
In short: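 CD14+ monocytes from healthy donor PBMCs were differentiated to immature DCs with IL-4/GM-CSF, exposed to test molecules on day 4 and matured with LPS on day 5. On day 6, MHC-II complexes were immunoprecipitated and eluted peptides identified by mass spectrometry; value is percentage of donors presenting peptides from each region.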

[3] = male, Sprague Dawley, rat, plasma, iv, 196 nmol/kg, single intravenous dose 196 nmol/kg, individual animal
[4] = male, Sprague Dawley, rat, plasma, iv, 196 nmol/kg, single intravenous dose 196 nmol/kg, mean
[5] = male, Sprague Dawley, rat, plasma, sc, 196 nmol/kg, single subcutaneous dose 196 nmol/kg, individual animal
[6] = male, Sprague Dawley, rat, plasma, sc, 196 nmol/kg, single subcutaneous dose 196 nmol/kg, mean
[7] = single intravenous dose 196 nmol/kg, male Sprague Dawley rats, individual animal
[8] = single subcutaneous dose 196 nmol/kg, male Sprague Dawley rats, individual animal

clearance [1, 3]: 3.91 mL/h/kg | half-life [1, 3]: 48.4 h | clearance [1, 4]: 3.82 mL/h/kg | half-life [1, 4]: 45.7 h | half-life [1, 5]: 43.8 h | CL/F ([1]; male, Sprague Dawley, rat, plasma, sc, 196 nmol/kg, single subcutaneous dose 196 nmol/kg, individual animal, read-out: CL/F (converted)): 5.04 mL/h/kg | Tmax [1, 5]: 24 h | half-life [1, 6]: 39.3 h | CL/F ([1]; male, Sprague Dawley, rat, plasma, sc, 196 nmol/kg, single subcutaneous dose 196 nmol/kg, mean, read-out: CL/F (converted)): 4.47 mL/h/kg | Tmax [1, 6]: 24 h | AUC0-inf ([1]; rat, plasma, sc, single subcutaneous dose 196 nmol/kg, male Sprague Dawley rats, mean, read-out: AUC0-inf): 48.1 µM·h | Cmax ([1]; rat, plasma, sc, single subcutaneous dose 196 nmol/kg, male Sprague Dawley rats, mean, read-out: Cmax): 550 nM | AUC0-inf ([1]; rat, plasma, single intravenous dose 196 nmol/kg, male Sprague Dawley rats, mean, read-out: AUC0-inf): 52.1 µM·h | C0 ([1]; rat, plasma, single intravenous dose 196 nmol/kg, male Sprague Dawley rats, mean, read-out: C0): 1190 nM | CL [1, 7]: 3.23 mL/h/kg and 4.31 mL/h/kg | T1/2 [1, 7]: 49.8 h and 39.0 h | CL/F [1, 8]: 3.73 mL/h/kg and 4.63 mL/h/kg | T1/2 [1, 8]: 36.5 h and 37.7 h | MAPPS Assay >10 donors with diverse MHC ([2]; donors displaying MHC-II peptides / donors tested): 0/10 | MAPPS Assay >10 donors with diverse MHC ([2]; percentage of donors displaying MHC-II peptides): 0%
SMILES: CC[C@H](C)[C@H](NC(C)=O)C(=O)N[C@H](C(=O)N[C@H](C(=O)N[C@@H](CO)C(=O)N[C@@](C)(CC(C)C)C(=O)N[C@@H](CC(=O)O)C(=O)N[C@@H](C(=O)N1CCC[C@H]1C(=O)N[C@H](C(=O)NC(C)(C)C(=O)N[C@@](C)(CC(C)C)C(=O)N[C@@H](CC(C)C)C(=O)N[C@@H](CCC(N)=O)C(=O)N[C@H](C(=O)N[C@@H](CCCCN)C(=O)N[C@@H](CC(C)C)C(=O)N[C@@H](CCC(=O)O)C(=O)N[C@@H](CCC(N)=O)C(=O)N[C@@H](CCC(=O)O)C(=O)N[C@@H](CCCNC(=N)N)C(=O)N[C@@H](C)C(=O)N[C@@H](CCC(=O)O)C(=O)N[C@@H](CCCCN)C(=O)N[C@@H](C)C(=O)N[C@@H](CCCNC(=N)N)C(=O)N[C@@H](CCC(N)=O)C(=O)N[C@@H](CCC(N)=O)C(=O)N[C@@H](C)C(=O)N[C@@H](CCCCNC(=O)COCCOCCNC(=O)COCCOCCNC(=O)CC[C@H](NC(=O)CCCCCCCCCCCCCCCCCCC(=O)O)C(=O)O)C(=O)N[C@@H](CCC(=O)O)C(=O)N[C@@H](CC(N)=O)C(=O)N[C@H](C(=O)N[C@@H](CCC(=O)O)C(=O)N[C@H](C(=O)N[C@@H](CC(C)C)C(=O)N[C@@H](C)C(=O)N[C@@H](CCC(N)=O)C(=O)N[C@H](C(N)=O)C(C)C)[C@@H](C)CC)[C@@H](C)O)[C@@H](C)CC)[C@@H](C)O)C(C)C)[C@@H](C)O)C(C)C [SEQ ID NO: 41, Ac-IVTS αMeL D (D-Val) PT Aib αMeL LQIKLEQERAEKARQQAK((2-[2-(2-Amino-ethoxy)-ethoxy]-acetyl)2-γE-CO-(CH2)18-CO2H)ENTEILAQV-NH2] (Ac-IVTS[αMeL]D[dV]PT[Aib][αMeL]LQIKLEQERAEKARQQAK([AEEA-AEEA-γGlu-C20 diacid])ENTEILAQV-NH2)
AUC0-inf [1, 7]: 50.1 µM·h and 60.6 µM·h and 45.5 µM·h | C0 [1, 7]: 1350 nM and 1620 nM and 586 nM | AUC0-inf [1, 8]: 43.1 µM·h and 56.2 µM·h and 45 µM·h | Cmax [1, 8]: 467 nM and 645 nM and 539 nM | peptides displayed on MHC-II complexes ([2]; human dendritic cells from normal donors): no peptides displayed on MHC-II complexes | immunogenicity compared with SEQ ID NO:54 ([2]; in the MAPPs assay and/or the T cell proliferation assay): substantial improvements in immunogenicity over a compound comprising SEQ ID NO:54

— patent US20250163119A1, “COMPOUNDS FOR THE TREATMENT OF DIABETES OR OBESITY” (Eli Lilly and Company, priority 2023, published 2025)
